In patent US20260062422A1 (Halda Therapeutics OpCo, Inc., priority 2022, published 2026):

Columns and labels:
[1] = system: T-Rex 293 cell line SC3 cells having increased expression of androgen receptor protein due to exposure to doxycycline; test: Cellular growth inhibition, T-Rex 293 SC3 cells with doxycycline (androgen receptor induced), CellTiter-Glo; assay type: cell-based; settings: 72 h, T-Rex 293 SC3 cells with 10 ng/mL doxycycline (increased androgen receptor expression)
Summary of the method: (§1)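 With DMSO (0.5%) vehicle as negative control, compounds treated SC3 cells for 72 h in medium containing charcoal-dextran FBS ± doxycycline. This T-Rex 293 clone expresses transfected wild-type AR on induction. Readout: CellTiter-Glo 2.0; GI50 by nonlinear regression.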

T47D cells = test: Cellular growth inhibition assay for T47D cells, CellTiter-Glo; assay type: cell-based, human; settings: Homo sapiens, T47D, 72 h, 72 hours treatment, CellTiter-Glo 2.0 cell viability
Summary of the method: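 Growth inhibition as GI50, fitted with four parameters to CellTiter-Glo luminescence after 72 h of compound exposure (0.5% DMSO). Cells were T47D, grown in insulin-supplemented (0.2 units/mL) DMEM with 10% FBS and treated one day post-seeding.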

[2] = system: T-Rex 293 cell line SC3 cells lacking increased expression of androgen receptor protein; test: Cellular growth inhibition, T-Rex 293 SC3 cells without doxycycline, CellTiter-Glo; assay type: cell-based; settings: 72 h, T-Rex 293 SC3 cells not exposed to doxycycline, CellTiter-Glo 2.0
Summary of the method: as §1

VCaP cells = test: Cellular growth inhibition assay for VCaP cells, CellTiter-Glo; assay type: cell-based, human; settings: 72 hours treatment, CellTiter-Glo 2.0
Summary of the method: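 GI50 values come from four-parameter curve fits of luminescence data normalized to a zero baseline. Compound, in medium with 0.5% DMSO, was added one day after plating and left for 72 h before CellTiter-Glo 2.0 addition.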

Cc1sc2c(c1C)C(c1ccc(CN3CCO[C@@H](CNc4ncc(C(=O)N[C@H]5C(C)(C)[C@H](Oc6ccc(C#N)c(Cl)c6)C5(C)C)cn4)C3)cc1)=N[C@@H](Cc1ncco1)c1nnc(C)n1-2 [Compound I-334]
GI50 [1]: < 500 nM
GI50 (T47D cells): < 500 nM
GI50 [2]: < 500 nM
GI50 (VCaP cells; Homo sapiens, VCaP, 72 h): < 500 nM

Cc1sc2c(c1C)C(c1ccc(OC3CC4(CCN(c5ncc(C(=O)N[C@H]6C(C)(C)[C@H](Oc7ccc(C#N)c(Cl)c7)C6(C)C)cn5)CC4)C3)cc1)=N[C@H](Cc1ncco1)c1nnc(C)n1-2 [Compound I-50, N-[3-(3-chloro-4-cyano-phenoxy)-2,2,4,4-tetramethyl-cyclobutyl]-2-[2-[4-[(9R)-4,5,13-trimethyl-9-(oxazol-2-ylmethyl)-3-thia-1,8,11,12-tetrazatricyclo[8.3.0.02,6]trideca-2(6),4,7,10,12-pentaen-7-yl]phenoxy]-7-azaspiro[3.5]nonan-7-yl]pyrimidine-5-carboxamide]
GI50 [1]: < 500 nM
GI50 (T47D cells): > 3000 nM
GI50 [2]: > 3000 nM
GI50 (VCaP cells; Homo sapiens, VCaP, 72 h): > 3000 nM

Cc1sc2c(c1C)C(c1ccc(OCC[C@@H]3CCCN(c4ncc(C(=O)N[C@H]5C(C)(C)[C@H](Oc6ccc(C#N)c(Cl)c6)C5(C)C)cn4)C3)cc1)=N[C@@H](Cc1ncco1)c1nnc(C)n1-2 [Compound I-300]
GI50 [1]: < 500 nM
GI50 (T47D cells): < 500 nM
GI50 [2]: 500 to 1500 nM
GI50 (VCaP cells; Homo sapiens, VCaP, 72 h): < 500 nM

Cc1sc2c(c1C)C(c1ccc(CN3CCC4(CCCN(c5ncc(C(=O)N[C@H]6C(C)(C)[C@H](Oc7ccc(C#N)c(Cl)c7)C6(C)C)cn5)C4)C3)cc1)=N[C@H](Cc1ncco1)c1nnc(C)n1-2 (stereo partly shown) [Compound I-146]
GI50 [1]: < 500 nM
GI50 (T47D cells): < 500 nM
GI50 [2]: 500 to 1500 nM
GI50 (VCaP cells; Homo sapiens, VCaP, 72 h): < 500 nM

Cc1sc2c(c1C)C(c1ccc(O[C@H]3C[C@]4(CCCN(c5ncc(C(=O)N[C@H]6C(C)(C)[C@H](Oc7ccc(C#N)c(Cl)c7)C6(C)C)cn5)C4)C3)cc1)=N[C@@H](Cc1ncco1)c1nnc(C)n1-2 [Compound I-194]
GI50 [1]: < 500 nM
GI50 (T47D cells): 500 to 1500 nM
GI50 [2]: < 500 nM
GI50 (VCaP cells; Homo sapiens, VCaP, 72 h): < 500 nM

Cc1sc2c(c1C)C(c1ccc(-c3ncc(C4CCN(c5ncc(C(=O)N[C@H]6C(C)(C)[C@H](Oc7ccc(C#N)c(Cl)c7)C6(C)C)cn5)CC4)s3)cc1)=N[C@@H](Cc1ncco1)c1nnc(C)n1-2 [Compound I-452]
GI50 [1]: < 500 nM
GI50 (T47D cells): < 500 nM
GI50 [2]: < 500 nM
GI50 (VCaP cells; Homo sapiens, VCaP, 72 h): < 500 nM

Cc1sc2c(c1C)C(c1ccc(OC3CC4(CCN(c5ncc(C(=O)N[C@H]6C(C)(C)[C@H](Oc7ccc(C#N)c(Cl)c7)C6(C)C)cn5)CC4)C3)cc1)=NC(C(F)(F)F)c1nnc(C)n1-2 (stereo partly shown) [Compound I-600]
GI50 [1]: > 3000 nM
GI50 (T47D cells): > 3000 nM
GI50 [2]: > 3000 nM
GI50 (VCaP cells): > 3000 nM

Cc1sc2c(c1C)C(c1ccc(-c3cc(OC4CCN(c5ncc(C(=O)N[C@H]6C(C)(C)[C@H](Oc7ccc(C#N)c(Cl)c7)C6(C)C)cn5)CC4)cs3)cc1)=N[C@@H](Cc1ncco1)c1nnc(C)n1-2 [Compound I-443]
GI50 [1]: < 500 nM
GI50 (T47D cells): > 3000 nM
GI50 [2]: > 3000 nM
GI50 (VCaP cells; Homo sapiens, VCaP, 72 h): < 500 nM

Cc1sc2c(c1C)C(c1ccc(N3CC(C4CCN(c5ncc(C(=O)N[C@H]6C(C)(C)[C@H](Oc7ccc(C#N)c(Cl)c7)C6(C)C)cn5)C4)C3)cc1)=NC1(CC1)c1nnc(C)n1-2 (stereo partly shown) [Compound I-604]
GI50 [1]: < 500 nM
GI50 (T47D cells): 500 to 1500 nM
GI50 [2]: < 500 nM
GI50 (VCaP cells; Homo sapiens, VCaP, 72 h): < 500 nM

Cc1sc2c(c1C)C(c1ccc(CC[C@@H]3CC[C@@]4(CCCN(c5ncc(C(=O)N[C@H]6C(C)(C)[C@H](Oc7ccc(C#N)c(Cl)c7)C6(C)C)cn5)C4)C3)cc1)=N[C@H](Cc1ncco1)c1nnc(C)n1-2 [Compound I-252]
GI50 [1]: < 500 nM
GI50 (T47D cells): < 500 nM
GI50 [2]: > 3000 nM
GI50 (VCaP cells; Homo sapiens, VCaP, 72 h): > 3000 nM
